Here are results for 28 molecules from patent publication US20090018134A1, “Compounds - 945” (AstraZeneca AB, priority 2007, published 2009).

In one assay the target is T1, mTOR (Homo sapiens, UniProt P42345).
T1 construct: FLAG; made in house
T1 sequence (P42345 1362-2549): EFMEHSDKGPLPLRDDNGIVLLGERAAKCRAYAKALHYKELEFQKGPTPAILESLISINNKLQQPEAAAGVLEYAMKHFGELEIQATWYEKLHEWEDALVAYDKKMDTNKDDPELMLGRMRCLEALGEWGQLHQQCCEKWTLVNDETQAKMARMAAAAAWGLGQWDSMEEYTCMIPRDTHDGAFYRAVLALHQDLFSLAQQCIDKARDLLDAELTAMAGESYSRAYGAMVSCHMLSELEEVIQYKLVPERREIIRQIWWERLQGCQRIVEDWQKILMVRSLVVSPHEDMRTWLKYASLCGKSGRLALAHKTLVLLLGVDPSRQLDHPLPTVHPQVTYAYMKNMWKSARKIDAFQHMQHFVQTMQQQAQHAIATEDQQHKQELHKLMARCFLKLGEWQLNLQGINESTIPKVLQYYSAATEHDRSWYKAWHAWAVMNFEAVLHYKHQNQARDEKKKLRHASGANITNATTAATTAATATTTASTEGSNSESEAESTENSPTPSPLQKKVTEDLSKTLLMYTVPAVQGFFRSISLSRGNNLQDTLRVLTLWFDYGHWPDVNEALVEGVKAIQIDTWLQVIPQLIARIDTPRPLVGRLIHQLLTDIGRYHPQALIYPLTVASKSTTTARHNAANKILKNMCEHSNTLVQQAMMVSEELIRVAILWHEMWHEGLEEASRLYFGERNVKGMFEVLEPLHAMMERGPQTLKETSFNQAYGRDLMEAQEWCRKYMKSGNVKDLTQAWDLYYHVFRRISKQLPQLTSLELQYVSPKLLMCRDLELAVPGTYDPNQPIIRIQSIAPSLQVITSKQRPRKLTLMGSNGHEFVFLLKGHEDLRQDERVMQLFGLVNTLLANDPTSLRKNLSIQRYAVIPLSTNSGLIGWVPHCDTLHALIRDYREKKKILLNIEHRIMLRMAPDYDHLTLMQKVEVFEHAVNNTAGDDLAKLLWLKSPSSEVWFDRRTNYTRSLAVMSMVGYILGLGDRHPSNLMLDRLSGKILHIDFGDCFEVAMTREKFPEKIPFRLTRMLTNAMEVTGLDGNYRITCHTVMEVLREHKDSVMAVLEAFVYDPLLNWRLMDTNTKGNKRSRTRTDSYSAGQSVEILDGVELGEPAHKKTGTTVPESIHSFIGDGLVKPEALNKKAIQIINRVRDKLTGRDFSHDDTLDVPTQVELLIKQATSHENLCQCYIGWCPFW
Kind of assay: In Vitro mTOR Kinase Assay (Echo), Test (a)(ii). In kind it is biochemical. The settings on record: read-out: mTOR Kinase Assay (Echo). In outline: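 FLAG-tagged human mTOR truncation (residues 1362-2549) expressed in HEK293 cells and FLAG-purified. Compounds dispensed acoustically, reaction 2 h at room temperature, stopped with EDTA. Phosphorylation of biotinylated peptide detected by AlphaScreen with anti-p70 S6K (T389) antibody overnight; IC50 reported.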
`C[C@H]1COCCN1c1cc(C2(S(C)(=O)=O)CC2)nc(-c2ccc(NC(=O)Nc3ccc(Cl)cc3)cc2)n1` [Example 2s, 3-(4-chlorophenyl)-1-[4-[4-[(3S)-3-methylmorpholin-4-yl]-6-(1-methylsulfonylcyclopropyl)pyrimidin-2-yl]phenyl]urea]: the IC50 is 1.38 nM.

Consider `CC(C)NC(=O)Nc1ccc(-c2nc(N3CCOC[C@@H]3C)cc(C3(S(=O)(=O)C(C)C)CC3)n2)cc1` [Example 7b, 1-[4-[4-[(3S)-3-methylmorpholin-4-yl]-6-(1-propan-2-ylsulfonylcyclopropyl)pyrimidin-2-yl]phenyl]-3-propan-2-yl-urea], for which the IC50 came out at 18.1 nM.

The same assay, now with this note: table of enzyme assay Test (a)(ii); read-out: Test (a)(ii) IC50.
Regarding `C[C@H]1COCCN1c1cc(C2(S(=O)(=O)c3ccccc3)CC2)nc(-c2ccc(NC(=O)NC3CCC3)cc2)n1` [Example 36bd, 1-[4-[4-[1-(benzenesulfonyl)cyclopropyl]-6-[(3S)-3-methylmorpholin-4-yl]pyrimidin-2-yl]phenyl]-3-cyclobutylurea], the IC50 was determined as 2.58 nM. Still for that read-out and setting: then `C[C@H]1COCCN1c1cc(C2(S(C)(=O)=O)CC2)nc(-c2ccc(NC(=O)Nc3ccc(Cl)cc3)cc2)n1` [Example 2s, 3-(4-chlorophenyl)-1-[4-[4-[(3S)-3-methylmorpholin-4-yl]-6-(1-methylsulfonylcyclopropyl)pyrimidin-2-yl]phenyl]urea], with 1.55 nM.

Take `C[C@H]1COCCN1c1cc(C2(S(=O)(=O)CCCO)CCCC2)nc(-c2ccc(NC(=O)NCCC#N)cc2)n1` [Example 43h, 3-(2-cyanoethyl)-1-[4-[4-[1-(3-hydroxypropyl-sulfonyl)cyclopen-tyl]-6-[(3S)-3-methylmorpholin-4-yl]pyrimidin-2-yl]phenyl]urea]: the IC50 worked out at 133 nM. Still for that read-out and setting: then `CC[C@H]1COCCN1c1cc(C2(S(=O)(=O)c3ccccc3)CC2)nc(-c2ccc(NC(=O)NCCF)cc2)n1` [Example 74c, 1-[4-[4-[1-(benzenesulfonyl)cyclopropyl]-6-[(3S)-3-ethylmorpholin-4-yl]pyrimidin-2-yl]phenyl]-3-(2-fluoroethyl)urea], with 3.14 nM; and `NC(=O)CS(=O)(=O)C1(c2cc(N3CCOCC3)nc(-c3ccc(NC(=O)NC4CC4)cc3)n2)CC1` [Example 46, 2-[1-[2-[4-(Cyclopropylcarbamoylamino)phenyl]-6-morpholin-4-ylpyrimidin-4-yl]cyclopropyl]sulfonylacetamide], with 4.56 nM. On the same count and under the same terms, then `C[C@H]1COCCN1c1cc(C2(S(=O)(=O)CCCO)CC2)nc(-c2ccc(NC(=O)NCCCO)cc2)n1` [Example 31i, 3-(3-hydroxypropyl)-1-[4-[4-[1-(3-hydroxypropylsulfonyl)cyclopropyl]-6-[(3S)-3-methylmorpholin-4-yl]pyrimidin-2-yl]phenyl]urea], with 3.26 nM; and `C[C@@H](CO)NC(=S)Nc1ccc(-c2nc(N3CCOC[C@@H]3C)cc(C3(S(C)(=O)=O)CCC3)n2)cc1` [Example 62b, 3-[(2S)-1-hydroxypropan-2-yl]-1-[4-[4-[(3S)-3-methylmorpholin-4-yl]-6-(1-methylsulfonylcyclobutyl)pyrimi-din-2-yl]phenyl]thiourea], with 5.46 nM; and `C[C@H]1COCCN1c1cc(C2(S(=O)(=O)c3nccs3)CCC2)nc(-c2ccc(NC(=O)NCCO)cc2)n1` [Example 98k, 3-(2-hydroxyethyl)-1-[4-[4-[(3S)-3-methylmorpholin-4-yl]-6-[1-(1,3-thiazol-2-ylsulfonyl)cyclobutyl]pyrimidin-2-yl]phenyl]urea], with 2.46 nM. On to `CCNC(=O)Nc1ccc(-c2nc(N3CCOC[C@@H]3C)cc(C3(S(=O)(=O)CCCO)CCOCC3)n2)cc1` [Example 36cb, 1-ethyl-3-[4-[4-[4-(3-hydroxypropylsulfonyl)oxan-4-yl]-6-[(3S)-3-methylmorpholin-4-yl]pyrimidin-2-yl]phenyl]urea], for which the IC50 came to 163 nM.

Turning to `CNC(=O)Nc1ccc(-c2nc(N3CCOC[C@@H]3C)cc(C3(S(=O)(=O)c4nccs4)CC3)n2)cc1` [Example 39a], the IC50 turned out to be 0.502 nM. Still for that read-out and setting: then `CCNC(=S)Nc1ccc(-c2nc(N3CCOC[C@@H]3C)cc(C3(S(C)(=O)=O)CC3)n2)cc1` [Example 35a, 3-ethyl-1-[4-[4-[(3S)-3-methylmorpholin-4-yl]-6-(1-methylsulfonylcyclopropyl)pyrimidin-2-yl]phenyl]thiourea], with 5.52 nM; and `C[C@H]1COCCN1c1cc(C2(S(=O)(=O)C3CC3)CC2)nc(-c2ccc(NC(=O)NCCF)cc2)n1` [Example 64t, 1-[4-[4-(1-cyclopropylsulfonylcyclopropyl)-6-[(3S)-3-methylmorpholin-4-yl]pyrimidin-2-yl]phenyl]-3-(2-fluoroethyl)urea], with 11.4 nM; and `C[C@H]1COCCN1c1cc(C2(S(=O)(=O)c3ccccc3F)CC2)nc(-c2ccc(NC(=O)NC3CC3)cc2)n1` [Example 58a, 3-cyclopropyl-1-[4-[4-[1-(2-fluorophenyl)sulfonylcyclopropyl]-6-[(3S)-3-methylmorpholin-4-yl]pyrimidin-2-yl]phenyl]urea], with 3.39 nM. The same measure, in the same setting: then `C[C@H]1COCCN1c1cc(C2(S(=O)(=O)C3CCCCC3)CC2)nc(-c2ccc(NC(=O)NCCO)cc2)n1` [Example 26d, 1-[4-[4-(1-cyclohexylsulfonylcyclopropyl)-6-[(3S)-3-methylmorpholin-4-yl]pyrimidin-2-yl]phenyl]-3-(2-hydroxyethyl)urea], with 1.2 nM; and `C[C@H]1COCCN1c1cc(C2(S(=O)(=O)c3nccs3)CC2)nc(-c2ccc(NC(=S)NCCO)cc2)n1` [Example 67, 3-(2-Hydroxyethyl)-1-[4-[4-[(3S)-3-methylmorpholin-4-yl]-6-[1-(1,3-thiazol-2-ylsulfonyl)cyclopropyl]pyrimidin-2-yl]phenyl]thiourea], with 1 nM; and `Cc1nn(C)cc1S(=O)(=O)C1(c2cc(N3CCOC[C@@H]3C)nc(-c3ccc(NC(=O)NCC(F)F)cc3)n2)CC1` [Example 55d, 3-(2,2-difluoroethyl)-1-[4-[4-[1-(1,3-dimethylpyrazol-4-yl)sulfonylcyclopropyl]-6-[(3S)-3-methylmorpholin-4-yl]pyrimidin-2-yl]phenyl]urea], with 35.1 nM.

Turning to `C[C@H]1COCCN1c1cc(C2(S(=O)(=O)c3ccccn3)CCC2)nc(-c2ccc(NC(=O)NCc3ncc[nH]3)cc2)n1` [Example 36ak, 3-(1H-imidazol-2-ylmethyl)-1-[4-[4-[(3S)-3-methylmorpholin-4-yl]-6-(1-pyridin-2-ylsulfonylcyclobutyl)pyrimidin-2-yl]phenyl]urea], the IC50 was determined as 2.45 nM. On the same count and under the same terms, then `C[C@H]1COCCN1c1cc(C2(S(=O)(=O)c3ccccc3)CC2)nc(-c2ccc(NC(=S)NCCCO)cc2)n1` [Example 37x, 1-[4-[4-[1-(benzenesulfonyl)cyclopropyl]-6-[(3S)-3-methylmorpholin-4-yl]pyrimidin-2-yl]phenyl]-3-(3-hydroxypropyl)thiourea], with 9.44 nM; and `Cc1nn(C(F)F)c(C)c1S(=O)(=O)C1(c2cc(N3CCOC[C@@H]3C)nc(-c3ccc(NC(=O)Nc4cnn(C)c4)cc3)n2)CC1` [Example 75f, 1-[4-[4-[1-[1-(difluoromethyl)-3,5-dimethylpyrazol-4-yl]sulfonylcyclopropyl]-6-[(3S)-3-methylmorpholin-4-yl]pyrimidin-2-yl]phenyl]-3-(1-methylpyrazol-4-yl)urea], with 60.8 nM; and `Cc1ccc(S(=O)(=O)C2(c3cc(N4CCOC[C@@H]4C)nc(-c4ccc(NC(=O)Nc5cnn(C)c5)cc4)n3)CC2)cc1` [Example 95r, 1-[4-[4-[(3S)-3-methylmorpholin-4-yl]-6-[1-(4-methylphenyl)sulfonylcyclopropyl]pyrimidin-2-yl]phenyl]-3-(1-methylpyrazol-4-yl)urea], with 6.31 nM. Still for that read-out and setting: then `C[C@H]1COC[C@H](C)N1c1cc(C2(S(=O)(=O)c3ccccc3)CC2)nc(-c2ccc(NC(=O)Nc3cnn(C)c3)cc2)n1` [Example 93e, 1-[4-[4-[1-(benzenesulfonyl)cyclopropyl]-6-[(3S,5S)-3,5-dimethylmorpholin-4-yl]pyrimidin-2-yl]phenyl]-3-(1-methylpyrazol-4-yl)urea], with 5.41 nM; and `CNC(=O)Nc1ccc(-c2nc(N3CCOC[C@@H]3C)cc(C3(S(=O)(=O)C4CCOCC4)CC3)n2)cc1` [Example 94a, 3-methyl-1-[4-[4-[(3S)-3-methylmorpholin-4-yl]-6-[1-(oxan-4-ylsulfonyl)cyclopropyl]pyrimidin-2-yl]phenyl]urea], with 13.6 nM; and `C[C@H]1COCCN1c1cc(C2(S(=O)(=O)CCC(C)(C)O)CC2)nc(-c2ccc(NC(=O)NC3CC3)cc2)n1` [Example 79, 3-Cyclopropyl-1-[4-[4-[1-(3-hydroxy-3-methylbutyl)sulfonylcyclopropyl]-6-[(3S)-3-methylmorpholin-4-yl]pyrimidin-2-yl]phenyl]urea], with 18.6 nM.

As to `CNC(=O)Nc1ccc(-c2nc(N3CCOC[C@@H]3C)cc(C3(S(=O)(=O)c4ccc(C#N)cc4)CC3)n2)cc1` [Example 77a, 1-[4-[4-[1-(4-cyanophenyl)sulfonylcyclopropyl]-6-[(3S)-3-methylmorpholin-4-yl]pyrimidin-2-yl]phenyl]-3-methylurea], the IC50 stood at 5.24 nM. The same measure, in the same setting: then `C[C@H]1COCCN1c1cc(C2(S(=O)(=O)c3cc(F)ccc3F)CC2)nc(-c2ccc(NC(=O)NCCF)cc2)n1` [Example 60c, 1-[4-[4-[1-(2,5-difluorophenyl)sulfonylcyclopropyl]-6-[(3S)-3-methylmorpholin-4-yl]pyrimidin-2-yl]phenyl]-3-(2-fluoroethyl)urea], with 6.95 nM; and `C[C@H]1COCCN1c1cc(C2(S(=O)(=O)CCCOC(F)F)CC2)nc(-c2ccc(NC(=O)NCC(F)F)cc2)n1` [Example 96b, 3-(2,2-difluoroethyl)-1-[4-[4-[1-[3-(difluoromethoxy)propylsulfonyl]cycloproyl]-6-[(3S)-3-methylmorpholin-4-yl]pyrimidin-2-yl]phenyl]urea], with 26.8 nM. The same measure, in the same setting: then `C[C@H]1COCCN1c1cc(C2(S(=O)(=O)CCCO)CC2)nc(-c2ccc(NC(=O)NC3CCS(=O)(=O)C3)cc2)n1` (stereo partly drawn) [Example 36cr, 3-(1,1-dioxothiolan-3-yl)-1-[4-[4-[1-(3-hydroxypropylsulfonyl)cyclopropyl]-6-[(3S)-3-methylmorpholin-4-yl]pyrimidin-2-yl]phenyl]urea], with 43.5 nM.
